Data taken from patent US10464927B2, “2,4-disubstituted pyrimidines as CDK inhibitors” (Shanghai Xunhe Pharmaceutical Technology Co. Ltd., priority 2016, dated 2019).

Columns and labels:
[1] = target: CDK4 (Homo sapiens (Human), UniProt P11802); assay: CDK4 protein kinase activity, Caliper mobility shift assay; assay type: biochemical; conditions: GST-CDK4(1-303 end), substrate Peptide FAM-P8, 28° C. for 3 h
Description: (§1) activity assay: The CDK4 protein kinase activity was measured using the Caliper mobility shift assay (see J. Biomol. Screen, 2009, PP31). The test compound was dissolved in DMSO and diluted with a kinase buffer solution (20 mM HEPES-pH 7.5, 0.01% Triton X-100, 10 mM MgCl2, 2 mM DTT) and 5 μL of compound at 5-fold final concentration of reaction dissolved in 10% DMSO was added in a 384-well plate. The compound-free control well was 5 μL of 10% DMSO, and the no-activity control well was 5 μL of kinase buffer. 10 μL of a 2.5-fold diluted CDK4 enzyme solution (GST-CDK4(1-303 end)) was added and incubated at room temperature for 10 min, and then 10 μL of the 2.5-fold diluted substrate solution Peptide FAM-P8 was added. The reaction was stopped by adding 25 μL of stop solution after incubation at 28° C. for 3 h, and the conversion rate data was read on a Caliper EZ Reader II (Caliper Life Sciences) and the conversion rate was converted to inhibition rate data according to above method. Among them, the inhibition rate %=(max−conversion)/(max−min)×100%.

[2] = target: CDK6 (Homo sapiens (Human), UniProt Q00534); assay: CDK6 protein kinase activity, Caliper mobility shift assay; assay type: biochemical; conditions: GST-CDK6(1-326 end), substrate Peptide FAM-P8, 28° C. for 3 h
Description: as §1, with “Activity Assay:” for “activity assay:”, “CDK6” for “CDK4”, “(GST-CDK6(1-326” for “(GST-CDK4(1-303”

Sequence of CDK6 (Q00534 whole entry): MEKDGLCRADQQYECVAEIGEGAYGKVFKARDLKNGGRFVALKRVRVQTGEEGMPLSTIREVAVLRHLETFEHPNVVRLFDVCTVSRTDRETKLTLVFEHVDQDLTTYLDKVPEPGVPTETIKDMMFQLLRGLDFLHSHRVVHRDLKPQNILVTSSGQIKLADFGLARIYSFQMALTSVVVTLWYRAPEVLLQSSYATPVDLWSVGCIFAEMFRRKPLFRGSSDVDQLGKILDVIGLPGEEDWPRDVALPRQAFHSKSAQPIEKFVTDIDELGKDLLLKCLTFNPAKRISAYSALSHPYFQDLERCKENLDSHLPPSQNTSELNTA
Sequence of CDK6 (P30281 whole entry partner): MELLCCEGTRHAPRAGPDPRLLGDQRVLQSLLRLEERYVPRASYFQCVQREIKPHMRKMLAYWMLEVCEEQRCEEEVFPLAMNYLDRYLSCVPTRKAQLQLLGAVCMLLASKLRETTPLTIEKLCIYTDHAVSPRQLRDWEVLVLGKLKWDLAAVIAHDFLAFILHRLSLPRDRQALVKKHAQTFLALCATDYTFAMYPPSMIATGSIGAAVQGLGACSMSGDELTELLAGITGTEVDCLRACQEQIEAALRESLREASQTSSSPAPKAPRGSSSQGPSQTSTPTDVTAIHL
Sequence of CDK4 (P11802 whole entry): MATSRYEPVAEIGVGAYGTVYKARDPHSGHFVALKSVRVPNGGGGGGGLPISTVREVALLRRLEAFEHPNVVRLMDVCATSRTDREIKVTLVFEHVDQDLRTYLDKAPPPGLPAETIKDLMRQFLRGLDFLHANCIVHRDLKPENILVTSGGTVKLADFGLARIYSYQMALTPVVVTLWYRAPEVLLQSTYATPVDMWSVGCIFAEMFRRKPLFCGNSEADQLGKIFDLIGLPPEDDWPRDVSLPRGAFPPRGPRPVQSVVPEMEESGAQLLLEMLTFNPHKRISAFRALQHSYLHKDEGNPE
Sequence of CDK4 (P30281 whole entry partner): as the sequence (P30281 whole entry partner) above

IC50 [1]	IC50 [2]	SMILES
≤ 20 nM	20 to 100 nM	CCN1CCN(Cc2ccc(Nc3ncc(F)c(-c4ccc5c(cc(C(=O)N(C)C)n5C(C)C)n4)n3)nc2)CC1 [Compound I-26, N-(5-(4-ethylpiperazine-1-methyl)-pyridin-2-yl)-5-fluoro-4-(1-isopropyl-2-formic acid diformamido-1H-4-azaindol-5-yl)pyrimidin-2-amine]
≤ 20 nM	≤ 20 nM	CCN1CCN(Cc2ccc(Nc3ncc(F)c(-c4ccc5c(cc(C(=O)N(C)C)n5C(C)C)c4F)n3)nc2)CC1 [Compound I-27, N-(5-(4-ethylpiperazine-1-methyl)-pyridin-2-yl)-5-fluoro-4-(1-isopropyl-2-formic acid diformamido-1H-4-fluoroindol-5-yl)pyrimidin-2-amine]
≤ 20 nM	20 to 100 nM	CC(C)n1c(C(=O)N(C)C)cc2c(F)c(-c3nc(Nc4ccc(N5CCNCC5)cn4)ncc3F)ccc21 [Compound I-28, N-(5-(piperazin-1-yl)-pyridin-2-yl)-5-fluoro-4-(1-isopropyl-2-formic acid diformamido-1H-4-fluoroindol-5-yl)pyrimidin-2-amine]
≤ 20 nM	≤ 20 nM	CC(=O)c1c2ccc(-c3nc(Nc4ccc(N5CCNCC5)cn4)ncc3F)nc2nn1C1CC1 [Compound I-29, N-(5-(piperazin-1-yl)-pyridin-2-yl)-5-fluoro-4-(2-cyclopropyl-3-acetyl-2H-7-azaindazol-6-yl)pyrimidin-2-amine]
≤ 20 nM	≤ 20 nM	CN(C)C(=O)c1c2ccc(-c3nc(Nc4ccc(N5CCNCC5)cn4)ncc3F)c(F)c2nn1C [Compound I-31, N-(5-(piperazin-1-yl)-pyridin-2-yl)-5-fluoro-4-(2-methyl-3-formic acid diformamido-2H-7-fluoro-indazol-6-yl)pyrimidin-2-amine]
≤ 20 nM	20 to 100 nM	CC(=O)c1nc(C2CC2)n2cc(-c3nc(Nc4ccc(N5CCNCC5)cn4)ncc3F)cc(F)c12 [Compound I-32, N-(5-(piperazin-1-yl)-pyridin-2-yl)-5-fluoro-4-(1-acetyl-3-cyclopropyl-8-fluoro-imidazolo[1,5-a]pyridin-6-yl)pyrimidin-2-amine]
≤ 20 nM	≤ 20 nM	CCN1CCN(Cc2ccc(Nc3ncc(F)c(-c4ccc5nnc(C(F)(F)F)n5c4)n3)nc2)CC1 [Compound I-33, N-(5-(4-ethylpiperazine-1-methyl)-pyridin-2-yl)-5-fluoro-4-(3-trifluoromethyl-[1,2,4]triazolo[4,3-a]pyridin-6-yl)pyrimidin-2-amine]
≤ 20 nM	≤ 20 nM	CCN1CCN(Cc2ccc(Nc3ncc(F)c(-c4ccc5ncc(C#N)n5c4)n3)nc2)CC1 [Compound I-34, N-(5-(4-ethylpiperazine-1-methyl)-pyridin-2-yl)-5-fluoro-4-(3-cyano-imidazo[1,2-a]pyridin-6-yl)pyrimidin-2-amine]
20 to 100 nM	20 to 100 nM	CCN1CCN(Cc2ccc(Nc3ncc(F)c(-c4ccc5nnc(C(C)=O)n5c4)n3)nc2)CC1 [Compound I-35, N-(5-(4-ethylpiperazine-1-methyl)-pyridin-2-yl)-5-fluoro-4-(3-acetyl-[1,2,4]triazolo[4,3-a]pyridin-6-yl)pyrimidin-2-amine]
≤ 20 nM	≤ 20 nM	CCN1CCN(Cc2ccc(Nc3ncc(F)c(-c4ccc5nnc(C6CC6)n5c4)n3)nc2)CC1 [Compound I-36, N-(5-(4-ethylpiperazin-1-methyl)-pyridin-2-yl)-5-fluoro-4-(3-cyclopropyl-[1,2,4]triazolo[4,3-a]pyridin-6-yl)pyrimidin-2-amine]
≤ 20 nM	20 to 100 nM	CN1CCN(c2ccc(Nc3ncc(F)c(-c4ncc5nc(C(=O)N(C)C)n(C6CCCC6)c5n4)n3)nc2)CC1 [Compound I-37]
≤ 20 nM	≤ 20 nM	CC(=O)c1nc2cnc(-c3nc(Nc4ccc(CN5CCN(C)CC5)cn4)ncc3F)nc2n1C(C)C [Compound I-38, N-(5-(4-methylpiperazine-1-methyl)-pyridin-2-yl)-5-fluoro-4-(9-isopropyl-8-acetyl-9H-purin-2-yl)pyrimidin-2-amine]
≤ 20 nM	≤ 20 nM	CCC(CC)n1c(C(C)C)nc2cnc(-c3nc(Nc4ccc(CN5CCN(C)CC5)cn4)ncc3F)nc21 [Compound I-39, N-(5-(4-methylpiperazin-1-methyl)-pyridin-2-yl)-5-fluoro-4-(9-(3-pentyl)-8-isopropyl-9H-purin-2-yl)pyrimidin-2-amine]
≤ 20 nM	≤ 20 nM	CCN1CCN(Cc2ccc(Nc3ncc(F)c(-c4ncc5nc(C(=O)N(C)C)n(C)c5n4)n3)nc2)CC1 [Compound I-40, N-(5-(4-ethylpiperazin-1-methyl)-pyridin-2-yl)-5-fluoro-4-(9-methyl-8-formic acid diformamido-9H-purin-2-yl)pyrimidin-2-amine]
≤ 20 nM	≤ 20 nM	CCN1CCN(Cc2ccc(Nc3ncc(F)c(-c4ncnc5c4cc(C(C)=O)n5C4CC4)n3)nc2)CC1 [Compound I-41, N-(5-(4-ethylpiperazine-1-methyl)-pyridin-2-yl)-5-fluoro-4-(6-acetyl-7-cyclopropyl-7H-pyrrolo[2,3-d]pyrimidin-4-yl)pyrimidin-2-amine]
≤ 20 nM	20 to 100 nM	CCN1CCN(Cc2ccc(Nc3ncc(F)c(-c4ncnc5c4c(C#N)cn5C)n3)nc2)CC1 [Compound I-42, N-(5-(4-ethylpiperazine-1-methyl)-pyridin-2-yl)-5-fluoro-4-(5-cyano-7-methyl-7H-pyrrolo[2,3-d]pyrimidin-4-yl)pyrimidin-2-amine]
20 to 100 nM	20 to 100 nM	CCN1CCN(Cc2ccc(Nc3ncc(F)c(-c4ccc5c(c(C)nn5C5CCCC5)c4F)n3)nc2)CC1 [Compound I-45, N-(5-(4-ethylpiperazine-1-methyl)-pyridin-2-yl)-5-fluoro-4-(1-cyclopentyl-3-methyl-4-fluoro-1H-indazol-5-yl)pyrimidin-2-amine]
20 to 100 nM	20 to 100 nM	CCN1CCN(Cc2ccc(Nc3ncc(F)c(-c4ccc5c(n4)c(C(F)(F)F)nn5C4CCCC4)n3)nc2)CC1 [Compound I-46, N-(5-(4-ethylpiperazine-1-methyl)-pyridin-2-yl)-5-fluoro-4-(1-cyclopentyl-3-trifluoromethyl-4-aza-1H-indazol-5-yl)pyrimidin-2-amine]
≤ 20 nM	20 to 100 nM	Cc1nc2cnc(-c3nc(Nc4ccc(N5CCN(C)CC5)cn4)ncc3F)nc2n1C(C)C [Compound I-47, N-(5-(4-methylpiperazin-1-yl)-pyridin-2-yl)-5-fluoro-4-(9-isopropyl-8-methyl-9H-purin-2-yl)pyrimidin-2-amine]
≤ 20 nM	100 to 500 nM	CCN1CCN(c2ccc(Nc3ncc(F)c(-c4ncc5nc(C)n(C(C)C)c5n4)n3)nc2)CC1 [Compound I-48, N-(5-(4-ethylpiperazin-1-yl)-pyridin-2-yl)-5-fluoro-4-(9-isopropyl-8-methyl-9H-purin-2-yl)pyrimidin-2-amine]

SMILES	IC50 [1]	IC50 [2]
CN(C)C(=O)c1nn(C2CCCC2)c2ccc(-c3nc(Nc4ccc(N5CCNCC5)cn4)ncc3F)cc12 [Compound I-43, N-(5-(piperazin-1-yl)-pyridin-2-yl)-5-fluoro-4-(1-cyclopentyl-3-formic acid diformamido-1H-indazol-5-yl)pyrimidin-2-amine]	≤ 20 nM	≤ 20 nM
CCN1CCN(Cc2ccc(Nc3ncc(F)c(-c4ccc5c(c4)c(C(C)=O)nn5C(C)C)n3)nc2)CC1 [Compound I-44, N-(5-(4-ethylpiperazine-1-methyl)-pyridin-2-yl)-5-fluoro-4-(1-isopropyl-3-acetyl-1H-indazol-5-yl)pyrimidin-2-amine]	≤ 20 nM	> 500 nM
